# Laboratory results from PubChem BioAssay (NCI).
#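 GI50: concentration for 50% inhibition of growth. Definition used: TGI = concentration required for complete inhibition of growth.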
# Assays:
# Assay in all cases: NCI-60 cell line screen, 384-well format
# [1] = test system: M14 melanoma
# [2] = test system: CAKI-1 renal
# [3] = test system: HS 578T breast
# [4] = test system: HOP-62 NSCLC
# [5] = test system: MCF7 breast
# [6] = test system: SW-620 colon
# [7] = test system: OVCAR-8 ovarian
# [8] = test system: SK-OV-3 ovarian
# [9] = test system: EKVX NSCLC
# [10] = test system: UACC-62 melanoma
# [11] = test system: SNB-19 CNS
# [12] = test system: NCI-H322M lung
# [13] = test system: MALME-3M melanoma
smiles,measurement,setting,value
CNC(=O)c1ccc(-c2cnc3ncc(Cc4ccc5ncccc5c4)n3n2)cc1F,GI50,[1],> 100 µM
same,TGI,[1],> 100 µM
same,GI50,[2],> 100 µM
same,TGI,[2],> 100 µM
same,GI50,[3],> 100 µM
same,TGI,[3],> 100 µM
same,GI50,[4],> 100 µM
same,TGI,[4],> 100 µM
same,GI50,[5],> 100 µM
same,TGI,[5],> 100 µM
same,GI50,[6],> 100 µM
same,TGI,[6],> 100 µM
same,GI50,[7],> 100 µM
same,TGI,[7],> 100 µM
same,GI50,[8],> 100 µM
same,TGI,[8],> 100 µM
same,GI50,[9],> 100 µM
same,TGI,[9],> 100 µM
same,GI50,[10],> 100 µM
same,TGI,[10],> 100 µM
same,GI50,[11],> 100 µM
same,TGI,[11],> 100 µM
same,GI50,[12],> 100 µM
same,TGI,[12],> 100 µM
same,GI50,[13],> 100 µM
same,TGI,[13],> 100 µM
